Measurements taken from patent publication US9732151B2, “Biomarkers for TSLP treatment” (Merck Sharp & Dohme Corp., priority 2011, dated 2017).

Columns and labels:
[1] = test system: biomarker genes in lung tissue of TSLP Tg mice; experiment: qRT-PCR of biomarker genes in lung tissue, steroid-treated TSLP Tg mice; type: in vivo
Protocol: TSLP Tg mice, on the BALB/c background, were obtained from the laboratory of Steven Ziegler. Zhou et al., Nat. Immunol. 6:1047-53 (2005). Non-transgenic littermates served as control mice. BALB/c mice (for ovalbumin (OVA)-induced asthma experiments) were purchased from the Jackson Laboratory. The standard model of OVA-induced asthma described below was used. In dexamethasone-treatment experiments, 12 week-old TSLP Tg mice were injected i.p. daily for 2 weeks with 2 mg/kg dexamethasone 21-phosphate disodium salt (Sigma) in sterile PBS, or with sterile PBS alone as a control. Colonies were maintained in a specific pathogenic-free environment.
Harvest of murine BAL fluid, BAL cells, and lung tissue: BAL fluid was isolated by washing the lung (through the trachea) with 1mL of PBS. Lavage fluid was kept on ice and centrifuged at 400g for 5 min. The supernatant was frozen for cytokine analysis, and the cell pellet was resuspended in 1mL of PBS for total viable cell count by Vi-CELL ([…]) and cell differentials by cytospin. Slides were air-dried, fixed with 95% ethanol, and stained with Wright-Giemsa (Sigma-Aldrich). A minimum of 200 cells were counted under the microscope per slide for cell differentials. The postcaval lung lobe and BAL cells were collected and snap-frozen in liquid nitrogen for qRT-PCR analysis as described previously for tissue (Chan et al., J. Exp. Med. 203:2577-87 (2006)) and below for BAL cells. The single left lung lobe was excised for histology and clinical scoring as described below.
(§1) mRNA isolation from BAL cells and qRT-PCR: Total RNA was isolated from BAL cells using the RNeasy method (Qiagen, Valencia, Calif.) and reverse-transcribed using WT-OVATION ® (chemicals, assays, and reagents for nucleic acid sequence amplification, sequencing and sequence analysis and detection) Pico System (NuGen Technologies, San Carlos Calif.). Primers were designed using Primer Express software (Applied Biosystem, Foster City, Calif.) or obtained commercially from Applied Biosystems (ABI). qRT-PCR was performed on 10 ng of cDNA from each sample as described previously. Chan et al., J. Exp. Med. 203:2577-87 (2006).

[2] = test system: biomarkers in BAL fluid or cell mRNA; experiment: Table VIII summary: biomarkers down with steroids in BAL fluid or BAL cell mRNA; type: in vivo, mice
Source text: as §1
Western blot analysis of BAL fluid samples: Western blot analysis was performed on BAL fluid samples. 200 uL of each BAL fluid sample was acetone precipitated in 4 volumes of cold acetone overnight and resuspended in 1× NUPAGE® (chemical preparations used for life sciences research) LDS sample loading buffer. An equal amount was separated on a 4-12% NUPAGE® (chemical preparations used for life sciences research) gels, and gels were electroblotted onto PVDF membranes overnight at 10V in NUPAGE® (chemical preparations used for life sciences research) transfer buffer. Membranes were blocked in 5% fat-free milk in TBS/T (10mM TrisHC1 pH 7.5, 100 mM NaC1, 0.1% TWEEN® 20 (polysorbate 20)) for 1 hour and incubated with specific antibodies according to the manufacturer's instructions in 1% milk in TBS/T for another 2 hours. Blots were incubated with HRP-labeled secondary antibodies (chicken anti-goat) IgG, R&D Systems, Minneapolis, Minn. or donkey anti-rabbit Ig-G, GE Healthcare, Piscataway, N.J.) in 1% milk in TB S/T for another hour and detection was performed with ECL+(GE Healthcare). Primary antibodies used included anti-mouse LCN2, anti-mouse sICAM-1, anti-human sICAM-1 (for monkey studies), anti-mouse GP-39, anti-mouse YM1, and anti-mouse pIgR (all from R&D Systems); and anti-mouse UG, anti-mouse AMCase, anti-human AMCase (for monkey studies), anti-mouse CLCA3, and anti-human CLCA1 (for monkey studies) (all from Santa Cruz Biotechnology, Santa Cruz, Calif.). Polyclonal anti-mouse Reg3γ was generated at Schering-Plough Biopharma. After autoradiography visualization, membranes were dried and scanned on a Typhoon 9400 (GE Healthcare) for ECL+(457 nm excitation and 520BP40 emission). Image analysis was conducted using ImageQuant v5.2 (GE Healthcare) and band intensity reported as sum of pixel values above background.
ELISAs: Mouse LCN2, GP-39, sICAM-1, and YM1 proteins were quantified using QUANTIKINE® (in vitro immunoassay kits) or DUOSET® (biological reagents for use in research applications to identify cytokines by immunoassay) ELISA kits (R&D Systems) using a Vmax spectrophotometer with SoftMax Pro software (Molecular Devices); mouse IL-4, IL-5, and IL-13 were measured using a Luminex 100 machine with LINCOPLEX® (panels for taking immunoassay measurements and testing cytokine and endocrine hormones) multiplex kits (Millipore) and analyzed with MasterPlex software (Miraibio). Monkey YKL-40 was quantified via ELISA (Quidel), analyzed as above.

[3] = test system: biomarker genes in skin of calcipotriol treated mice; experiment: Vitamin D (calcipotriol) induced skin inflammation, real-time PCR of skin mRNA, +/- anti-TSLP; type: in vivo, mice (Balb/c); details: calcipotriol 2 nmol/ear daily, skin at day 8 (FIG. 5)
Protocol: (§2) Vitamin D Induced Skin Inflammation: The vitamin D analogue, calcipotriol (Tocris, Ellisville, Mo.), was dissolved in ethanol and was applied daily to both sides of the ears at a final concentration of 2 nmol/ear. Control animals were given ethanol only. Ear swelling was measured daily using an engineer's pressure gauge (Peacock, Japan) and blood was collected. The blood was spun at 10.000 rpm for 5 minutes to separate the serum, which was frozen at −80 C. until analyzed by ELISA. Calcipotriol applications were stopped on day 8 (Balb/c mice), ears were harvested and fixed in 10% formalin for pathological evaluation or frozen directly in liquid nitrogen for mRNA extraction.
Neutralization Experiments: mice were treated with 0.1, 0.4, 1, 4, 12, 40 and 120 mgs per kg (mpk) of a rat anti-mouse TSLP antibody (designated “22E5”) subcutaneously (s.c.) one day (d−1) prior to VitD3 treatment. Control mice received isotype antibody at 4 and 40 mpk. The mice were sacrificed at day 8.
Real-time PCR was conducted on mRNA extracted from skin tissue of mice treated with calcipotriol in the absence or the presence of an antagonistic anti-TSLP antibody or an isotype control

[4] = test system: biomarker genes in skin of TSLPR KO mice; experiment: Calcipotriol skin inflammation in TSLPR KO mice, real-time PCR of skin mRNA; type: in vivo; details: calcipotriol vs ethanol
Protocol: as §2, with “Mice: Six- to eight-week-old Balb/c were obtained from Jackson Labs (Bar Harbour, Me.). TSLPR KO mice were obtained from Dr. W. Leonard, NIH, Bethesda, Md. (Al Shami et al., J. Exp. Med. 200:159-168 (2004). Age-matched males were used for the time-course study and females for two efficacy studies. Vitamin” for “Vitamin”, “-80” for “−80”, “extraction. […] Similarly, real-time PCR was conducted on mRNA extracted from skin tissue of TSLPR KO mice treated with either ethanol (vehicle control) or calcipotriol.” for “extraction.”

[5] = test system: biomarker proteins in BAL fluid of HDMA-challenged monkeys; experiment: BAL fluid biomarkers (western blot, ELISA) in HDMA-challenged monkeys before and after corticosteroid therapy; type: in vivo, cynomolgus macaques (Macaca fascicularis)
Protocol: Western blot analysis of BAL fluid samples: Western blot analysis was performed on BAL fluid samples. 200 uL of each BAL fluid sample was acetone precipitated in 4 volumes of cold acetone overnight and resuspended in 1× NUPAGE® (chemical preparations used for life sciences research) LDS sample loading buffer. An equal amount was separated on a 4-12% NUPAGE® (chemical preparations used for life sciences research) gels, and gels were electroblotted onto PVDF membranes overnight at 10V in NUPAGE® (chemical preparations used for life sciences research) transfer buffer. Membranes were blocked in 5% fat-free milk in TBS/T (10mM TrisHC1 pH 7.5, 100 mM NaC1, 0.1% TWEEN® 20 (polysorbate 20)) for 1 hour and incubated with specific antibodies according to the manufacturer's instructions in 1% milk in TBS/T for another 2 hours. Blots were incubated with HRP-labeled secondary antibodies (chicken anti-goat) IgG, R&D Systems, Minneapolis, Minn. or donkey anti-rabbit Ig-G, GE Healthcare, Piscataway, N.J.) in 1% milk in TB S/T for another hour and detection was performed with ECL+(GE Healthcare). Primary antibodies used included anti-mouse LCN2, anti-mouse sICAM-1, anti-human sICAM-1 (for monkey studies), anti-mouse GP-39, anti-mouse YM1, and anti-mouse pIgR (all from R&D Systems); and anti-mouse UG, anti-mouse AMCase, anti-human AMCase (for monkey studies), anti-mouse CLCA3, and anti-human CLCA1 (for monkey studies) (all from Santa Cruz Biotechnology, Santa Cruz, Calif.). […] After autoradiography visualization, membranes were dried and scanned on a Typhoon 9400 (GE Healthcare) for ECL+(457 nm excitation and 520BP40 emission). Image analysis was conducted using ImageQuant v5.2 (GE Healthcare) and band intensity reported as sum of pixel values above background.
At this time, animals were challenged with nebulized HDMA (1 to 2500 AU/mL for 4 minutes) at a concentration that induced an early asthmatic response, defined as a 100% increase in lung resistance, 40% decrease in dynamic compliance, or decline in arterial oxygen saturation to ≦70%. Airway inflammation and reactions to nebulized histamine and methacholine 24 hours after allergen challenge were measured periodically to confirm chronic asthmatic responses. Wardle-Fick methods were used to obtain BAL fluid. BAL cells were then separated from the fluid phase. […] In corticosteroid treatments experiments, animals were challenged with HDMA and BAL fluid was collected 24 hours later (“Pre”).

HDMA-challenged monkeys = experiment: Asthma symptoms in HDMA-induced asthma in nonhuman primates after corticosteroid treatment; type: in vivo, cynomolgus macaques (Macaca fascicularis); details: high-dose corticosteroids for 2 weeks, data not shown
Source text: House mite allergen (HDMA)-induced asthma in nonhuman primates: Juvenile macaques (Cynomolgus fascicularis, 30 to 42 months of age) were purchased from Alphagenesis (Yemassee, S.C.). Animals were sensitized to HDMA over a 7.5 month period by intraperitoneal injection of 312 AU Dermatophagoides pteronyssinus extract (Greer Laboratories, Lenoir, N.C.) absorbed to IMJECT® (reagents used in connection with enhancing immune responses) Alum (Pierce, Rockford, Ill.) administered every two weeks until HDMA-specific IgE titers approached levels in control allergic serum, and then at 4-week intervals until aeroallergen challenge. At this time, animals were challenged with nebulized HDMA (1 to 2500 AU/mL for 4 minutes) at a concentration that induced an early asthmatic response, defined as a 100% increase in lung resistance, 40% decrease in dynamic compliance, or decline in arterial oxygen saturation to ≦70%. Airway inflammation and reactions to nebulized histamine and methacholine 24 hours after allergen challenge were measured periodically to confirm chronic asthmatic responses. Wardle-Fick methods were used to obtain BAL fluid. BAL cells were then separated from the fluid phase. Mass spectrometry compared BAL fluid from sensitized animals before and after HDMA challenge. In corticosteroid treatments experiments, animals were challenged with HDMA and BAL fluid was collected 24 hours later (“Pre”). Animals then received weekly doses of methylprednisolone succinate (4.5 mg/kg intramuscularly) for two weeks, followed by a single dose of methylprednisolone acetate (10 mg/kg […].) one week later at the time of allergen challenge. BAL fluid was collected 24 hours following challenge (“Post”). Animal husbandry was conducted under USDA guidelines. All protocols were approved by the Institutional Animal Care and Use Committee of East Carolina University.

C[C@@H]1C[C@H]2[C@@H]3CCC4=CC(=O)C=C[C@]4(C)[C@@]3(F)[C@@H](O)C[C@]2(C)[C@@]1(O)C(=O)CO [Steroids, dexamethasone]
Down with Steroids (Lung Tissue): CLCA3 [1]: — (a dash indicates a biomarker not reduced upon treatment)
Down with Steroids (Lung Tissue): Chi3l4 (YM2) [1]: — (a dash indicates a biomarker not reduced upon treatment)
Down with Steroids (Lung Tissue): ECP (Ear11) [1]: — (a dash indicates a biomarker not reduced upon treatment)
Down with Steroids (Lung Tissue): FCGBP [1]: — (a dash indicates a biomarker not reduced upon treatment)
Down with Steroids (Lung Tissue): ICAM-1 [1]: — (a dash indicates a biomarker not reduced upon treatment)
Down with Steroids (Lung Tissue): LCN2 [1]: — (a dash indicates a biomarker not reduced upon treatment)
Down with Steroids (Lung Tissue): PGLYRP1 [1]: — (a dash indicates a biomarker not reduced upon treatment)
Down with Steroids (Lung Tissue): RETNLβ [1]: — (a dash indicates a biomarker not reduced upon treatment)
Down with Steroids (Lung Tissue): Reg3γ [1]: — (a dash indicates a biomarker not reduced upon treatment)
Down with Steroids (BAL fluid or cell mRNA): AMCase (Chia) [2]: — (a dash indicates a biomarker not reduced upon treatment)
Down with Steroids (BAL fluid or cell mRNA): ECP (Ear11) [2]: — (a dash indicates a biomarker not reduced upon treatment)
Down with Steroids (BAL fluid or cell mRNA): LTF [2]: — (a dash indicates a biomarker not reduced upon treatment)
Down with Steroids (BAL fluid or cell mRNA): MMP12 [2]: — (a dash indicates a biomarker not reduced upon treatment)
Down with Steroids (BAL fluid or cell mRNA): Reg3γ [2]: — (a dash indicates a biomarker not reduced upon treatment)

C=C1/C(=C\C=C2/CCC[C@]3(C)[C@@H]([C@H](C)/C=C/[C@@H](O)C4CC4)CC[C@@H]23)C[C@@H](O)C[C@@H]1O [calcipotriol]
upregulation of EAR11, MMP12, LCN2, YM1, YM2, YKL-40, Reg3 g, PGLYRP1, CD44 mRNA in skin [3]: ≥ 2 fold
EAR11, MMP12, and YM2 mRNA in skin [4]: not upregulated

C[C@H]1C[C@@H]2[C@H]([C@@H](O)C[C@@]3(C)[C@H]2CC[C@]3(O)C(=O)COC(=O)CCC(=O)O)[C@@]2(C)C=CC(=O)C=C12 [corticosteroid, methylprednisolone succinate]
disease biomarkers in BAL fluid ([5]; HDMA-challenged monkeys, 2 weeks of corticosteroid therapy (FIG. 4)): Reduction
expression of LCN2, UG, pIgR, PAP, and CLCA1 in BAL fluid ([5]; Post vs Pre corticosteroid, trending downward, data not shown): not significantly reduced
GP-39 in BAL fluid ([5]; by ELISA, Post vs Pre corticosteroid (FIG. 4B)): significantly reduced
AMCase, sICAM-1, CLCA1 in BAL fluid ([5]; by western blot, Post vs Pre corticosteroid (FIG. 4A)): significantly reduced
airway eosinophil recruitment (HDMA-challenged monkeys): reduced
asthma symptoms (HDMA-challenged monkeys): reduced
lung function (HDMA-challenged monkeys): improved
